Results on one compound are retold here after ChEMBL document CHEMBL5696441 (Nat Chem Biol, 2011).

Test [1] addresses Serine/threonine-protein kinase NIM1 (Homo sapiens) (UniProt Q8IY84). Nature of the test: Inhibition of NIM1 (unknown origin) assessed as remaining activity at 1 uM by Kinome scan method relative to control.
Test [2] addresses T1, cGMP-dependent protein kinase 1 (Homo sapiens) (UniProt Q13976).
T1 sequence (whole entry): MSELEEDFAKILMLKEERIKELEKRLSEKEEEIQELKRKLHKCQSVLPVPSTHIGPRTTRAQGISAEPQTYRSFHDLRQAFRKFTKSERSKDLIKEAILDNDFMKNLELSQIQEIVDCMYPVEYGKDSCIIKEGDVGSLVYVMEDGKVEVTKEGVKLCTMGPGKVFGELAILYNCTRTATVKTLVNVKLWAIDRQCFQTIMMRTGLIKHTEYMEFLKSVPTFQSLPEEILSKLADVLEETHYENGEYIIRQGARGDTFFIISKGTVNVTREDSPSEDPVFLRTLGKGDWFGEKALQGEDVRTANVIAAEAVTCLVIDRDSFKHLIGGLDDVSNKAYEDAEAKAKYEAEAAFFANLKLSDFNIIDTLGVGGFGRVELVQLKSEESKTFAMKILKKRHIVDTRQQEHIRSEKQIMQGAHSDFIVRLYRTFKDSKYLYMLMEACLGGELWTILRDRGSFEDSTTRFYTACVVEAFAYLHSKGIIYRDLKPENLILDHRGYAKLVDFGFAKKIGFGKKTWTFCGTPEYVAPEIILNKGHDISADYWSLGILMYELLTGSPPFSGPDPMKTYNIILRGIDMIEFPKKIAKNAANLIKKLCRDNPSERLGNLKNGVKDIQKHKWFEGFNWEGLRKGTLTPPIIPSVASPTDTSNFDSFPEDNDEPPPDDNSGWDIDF
Nature of the test: Inhibition of human PRKG1 assessed as residual activity at 1 uM using 3xChocktide-PKC(19-31) as substrate in presence of 33P-ATP by ProQinase assay relative to control.

Test [3] concerns Epidermal growth factor receptor (Homo sapiens), P00533 [UNDEFINED MUTATION]. Nature of the test: Inhibition of human EGFR d752-759 mutant assessed as residual activity at 1 uM using PolyEY as substrate in presence of 33P-ATP by ProQinase assay relative to control.
Epidermal growth factor receptor (Homo sapiens), P00533 [UNDEFINED MUTATION], sequence (P00533 whole entry, looked up, change not shown): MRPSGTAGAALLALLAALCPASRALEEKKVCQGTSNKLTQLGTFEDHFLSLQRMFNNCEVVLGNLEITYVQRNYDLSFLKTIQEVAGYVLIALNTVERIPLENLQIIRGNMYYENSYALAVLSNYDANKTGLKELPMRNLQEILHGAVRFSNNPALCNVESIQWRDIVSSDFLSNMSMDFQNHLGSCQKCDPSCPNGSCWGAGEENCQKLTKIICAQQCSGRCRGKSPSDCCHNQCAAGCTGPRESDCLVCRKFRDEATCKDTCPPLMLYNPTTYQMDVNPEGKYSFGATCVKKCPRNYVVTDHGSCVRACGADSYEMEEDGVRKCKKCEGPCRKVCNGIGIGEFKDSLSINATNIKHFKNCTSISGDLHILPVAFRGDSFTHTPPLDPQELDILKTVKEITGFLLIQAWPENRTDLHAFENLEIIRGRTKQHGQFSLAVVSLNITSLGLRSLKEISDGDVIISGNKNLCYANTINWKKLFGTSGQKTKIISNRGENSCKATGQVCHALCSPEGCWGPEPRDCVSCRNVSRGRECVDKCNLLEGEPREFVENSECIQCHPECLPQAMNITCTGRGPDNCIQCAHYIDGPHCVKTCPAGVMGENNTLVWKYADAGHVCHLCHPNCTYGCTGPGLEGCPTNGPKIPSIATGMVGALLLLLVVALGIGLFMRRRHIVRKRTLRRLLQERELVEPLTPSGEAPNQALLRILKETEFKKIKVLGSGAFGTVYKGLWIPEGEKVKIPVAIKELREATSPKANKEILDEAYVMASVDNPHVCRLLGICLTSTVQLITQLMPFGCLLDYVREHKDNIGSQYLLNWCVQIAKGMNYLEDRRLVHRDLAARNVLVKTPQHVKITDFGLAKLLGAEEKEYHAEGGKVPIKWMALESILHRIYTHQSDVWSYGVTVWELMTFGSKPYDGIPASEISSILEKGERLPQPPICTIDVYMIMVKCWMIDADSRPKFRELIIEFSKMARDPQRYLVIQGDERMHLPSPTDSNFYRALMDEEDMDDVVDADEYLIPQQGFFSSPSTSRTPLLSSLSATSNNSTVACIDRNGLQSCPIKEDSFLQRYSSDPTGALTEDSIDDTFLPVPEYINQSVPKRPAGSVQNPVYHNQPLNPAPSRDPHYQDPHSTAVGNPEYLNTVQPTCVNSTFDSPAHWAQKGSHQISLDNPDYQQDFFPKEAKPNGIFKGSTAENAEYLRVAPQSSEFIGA
In test [4] the target is RAC-beta serine/threonine-protein kinase (Homo sapiens) (UniProt P31751). Nature of the test: Inhibition of human AKT2 assessed as residual activity at 1 uM using RBER-GSK3(14-27) as substrate in presence of 33P-ATP by ProQinase assay relative to control.
RAC-beta serine/threonine-protein kinase (Homo sapiens), sequence (P31751 whole entry): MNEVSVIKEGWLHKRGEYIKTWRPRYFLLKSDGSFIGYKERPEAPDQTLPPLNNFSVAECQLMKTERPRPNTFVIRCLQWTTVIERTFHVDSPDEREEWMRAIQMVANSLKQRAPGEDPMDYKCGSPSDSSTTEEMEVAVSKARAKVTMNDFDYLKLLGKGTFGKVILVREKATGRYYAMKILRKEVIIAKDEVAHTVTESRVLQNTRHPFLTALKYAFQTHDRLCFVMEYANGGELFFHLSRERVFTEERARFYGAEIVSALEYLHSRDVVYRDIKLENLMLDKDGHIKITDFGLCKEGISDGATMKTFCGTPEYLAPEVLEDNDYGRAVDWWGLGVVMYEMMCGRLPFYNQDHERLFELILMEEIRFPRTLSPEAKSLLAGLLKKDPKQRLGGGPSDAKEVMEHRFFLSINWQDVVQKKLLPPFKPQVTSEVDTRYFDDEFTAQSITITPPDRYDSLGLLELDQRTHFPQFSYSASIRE
In test [5] the target is Protein kinase C epsilon type (Homo sapiens) (UniProt Q02156). The test can be described thus: Inhibition of PRKCE (unknown origin) assessed as remaining activity at 1 uM by Kinome scan method relative to control.
In test [6] the target is Ribosomal protein S6 kinase alpha-6 (Homo sapiens) (UniProt Q9UK32). The test can be described thus: Inhibition of C-terminal kinase domain RPS6KA6 (unknown origin) assessed as remaining activity at 1 uM by Kinome scan method relative to control.
Ribosomal protein S6 kinase alpha-6 (Homo sapiens), sequence (Q9UK32 whole entry, the tested form may be a part): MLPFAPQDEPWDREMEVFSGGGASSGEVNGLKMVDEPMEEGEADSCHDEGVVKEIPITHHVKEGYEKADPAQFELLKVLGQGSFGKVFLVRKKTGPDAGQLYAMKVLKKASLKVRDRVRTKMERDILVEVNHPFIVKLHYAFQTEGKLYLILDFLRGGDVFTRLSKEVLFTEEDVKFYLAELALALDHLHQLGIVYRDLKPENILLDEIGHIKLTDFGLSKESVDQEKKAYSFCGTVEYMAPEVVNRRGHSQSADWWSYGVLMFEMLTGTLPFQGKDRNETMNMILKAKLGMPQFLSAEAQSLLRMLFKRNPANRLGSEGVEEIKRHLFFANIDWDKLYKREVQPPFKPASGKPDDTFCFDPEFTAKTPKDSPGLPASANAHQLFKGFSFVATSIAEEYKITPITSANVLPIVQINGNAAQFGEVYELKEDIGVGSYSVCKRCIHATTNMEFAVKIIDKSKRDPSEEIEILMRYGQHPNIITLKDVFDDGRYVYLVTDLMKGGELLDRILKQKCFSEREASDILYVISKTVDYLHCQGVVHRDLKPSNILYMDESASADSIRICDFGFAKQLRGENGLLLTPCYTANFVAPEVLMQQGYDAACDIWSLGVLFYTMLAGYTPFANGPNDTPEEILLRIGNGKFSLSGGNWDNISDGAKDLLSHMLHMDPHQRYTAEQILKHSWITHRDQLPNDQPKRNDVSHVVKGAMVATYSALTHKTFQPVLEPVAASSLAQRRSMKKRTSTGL
Test [7] has as its target Serine/threonine-protein kinase TNNI3K (Homo sapiens) (UniProt Q59H18). Nature of the test: Inhibition of TNNI3K (unknown origin) assessed as remaining activity at 1 uM by Kinome scan method relative to control.
Test [8] concerns the target SRSF protein kinase 2 (Homo sapiens) (UniProt P78362). Nature of the test: Inhibition of human SRPK2 assessed as residual activity at 1 uM using MBP as substrate in presence of 33P-ATP by ProQinase assay relative to control.
Test [9] concerns Tyrosine-protein kinase ABL1 (Homo sapiens), P00519 [E255K]. Nature of the test: Inhibition of human ABL1 E255K mutant assessed as residual activity at 1 uM using Poly(Ala,Glu,Lys,Tyr)6:2:5:1 as substrate in presence of 33P-ATP by ProQinase assay relative to control.
The target in test [10] is Fibroblast growth factor receptor 2 (Homo sapiens) (UniProt P21802). The test can be described thus: Inhibition of human FGFR2 assessed as residual activity at 1 uM using PolyEY as substrate in presence of 33P-ATP by ProQinase assay relative to control.
The test system of test [11] is Tyrosine-protein kinase ABL1 (Homo sapiens), P00519 [G250E]. Nature of the test: Inhibition of human ABL1 G250E mutant assessed as residual activity at 1 uM using Poly(Ala,Glu,Lys,Tyr)6:2:5:1 as substrate in presence of 33P-ATP by ProQinase assay relative to control.
Test [12] has as its target Protein kinase C delta type (Homo sapiens) (UniProt Q05655). Nature of the test: Inhibition of PRKCD (unknown origin) assessed as remaining activity at 1 uM by Kinome scan method relative to control.
The target in test [13] is Serine/threonine-protein kinase 3 (Homo sapiens) (UniProt Q13188). Nature of the test: Inhibition of human MST2 assessed as residual activity at 1 uM using RB-CTF as substrate in presence of 33P-ATP by ProQinase assay relative to control.
Serine/threonine-protein kinase 3 (Homo sapiens), sequence (Q13188 whole entry): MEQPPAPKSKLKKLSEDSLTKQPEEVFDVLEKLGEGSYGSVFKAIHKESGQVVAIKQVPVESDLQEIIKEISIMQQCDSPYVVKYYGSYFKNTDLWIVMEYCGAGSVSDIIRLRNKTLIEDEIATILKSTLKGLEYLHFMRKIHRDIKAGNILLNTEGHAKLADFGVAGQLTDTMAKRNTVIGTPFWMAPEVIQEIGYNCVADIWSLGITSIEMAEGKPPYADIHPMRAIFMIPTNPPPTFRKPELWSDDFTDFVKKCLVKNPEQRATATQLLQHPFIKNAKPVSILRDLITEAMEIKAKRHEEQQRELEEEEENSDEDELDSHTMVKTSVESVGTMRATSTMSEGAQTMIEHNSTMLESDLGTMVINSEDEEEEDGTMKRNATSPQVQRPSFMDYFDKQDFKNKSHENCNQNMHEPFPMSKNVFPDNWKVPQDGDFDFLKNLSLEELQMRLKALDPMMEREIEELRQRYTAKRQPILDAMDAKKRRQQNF
The target of test [14] is Activin receptor type-1-like (Homo sapiens) (UniProt P37023). Nature of the test: Inhibition of human ACVRL1 assessed as residual activity at 1 uM using Casein as substrate in presence of 33P-ATP by ProQinase assay relative to control.
Activin receptor type-1-like (Homo sapiens), sequence (P37023 whole entry): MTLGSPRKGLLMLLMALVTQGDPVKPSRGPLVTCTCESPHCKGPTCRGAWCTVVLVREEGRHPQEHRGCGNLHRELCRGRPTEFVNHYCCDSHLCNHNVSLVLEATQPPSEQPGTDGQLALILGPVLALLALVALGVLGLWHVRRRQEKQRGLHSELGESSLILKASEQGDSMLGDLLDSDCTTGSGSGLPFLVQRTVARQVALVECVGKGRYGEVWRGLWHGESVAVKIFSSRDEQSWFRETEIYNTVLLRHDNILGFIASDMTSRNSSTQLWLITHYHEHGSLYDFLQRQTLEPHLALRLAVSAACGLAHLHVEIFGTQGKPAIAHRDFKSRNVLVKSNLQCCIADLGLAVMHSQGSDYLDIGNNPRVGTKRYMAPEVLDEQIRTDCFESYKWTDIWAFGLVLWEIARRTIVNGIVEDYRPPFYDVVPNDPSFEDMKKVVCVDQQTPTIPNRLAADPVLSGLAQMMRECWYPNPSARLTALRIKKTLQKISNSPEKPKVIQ

Serine/threonine-protein kinase TNNI3K (Homo sapiens), sequence (Q59H18 whole entry): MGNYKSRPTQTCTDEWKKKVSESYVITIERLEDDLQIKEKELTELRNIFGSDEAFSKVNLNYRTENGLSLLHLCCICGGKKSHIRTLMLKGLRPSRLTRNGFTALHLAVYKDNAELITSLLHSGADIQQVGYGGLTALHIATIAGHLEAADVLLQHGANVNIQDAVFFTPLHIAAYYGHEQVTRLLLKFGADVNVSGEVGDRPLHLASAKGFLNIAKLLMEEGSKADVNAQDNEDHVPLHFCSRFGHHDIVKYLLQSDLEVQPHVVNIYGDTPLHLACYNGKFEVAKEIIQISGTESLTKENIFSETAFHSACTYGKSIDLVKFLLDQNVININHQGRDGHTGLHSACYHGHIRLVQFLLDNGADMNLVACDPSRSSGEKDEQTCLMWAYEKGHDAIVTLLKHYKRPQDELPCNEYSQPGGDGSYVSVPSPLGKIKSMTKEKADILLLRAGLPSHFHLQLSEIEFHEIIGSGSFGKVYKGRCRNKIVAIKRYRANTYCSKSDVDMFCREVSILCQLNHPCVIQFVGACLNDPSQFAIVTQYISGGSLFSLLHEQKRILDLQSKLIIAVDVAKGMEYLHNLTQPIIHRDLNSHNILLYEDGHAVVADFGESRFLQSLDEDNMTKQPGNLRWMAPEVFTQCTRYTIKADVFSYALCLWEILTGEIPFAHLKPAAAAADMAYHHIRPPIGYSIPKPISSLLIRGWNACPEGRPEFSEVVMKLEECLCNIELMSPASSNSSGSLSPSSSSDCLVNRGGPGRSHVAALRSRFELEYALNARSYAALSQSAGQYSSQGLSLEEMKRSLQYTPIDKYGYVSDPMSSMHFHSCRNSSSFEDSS
Serine/threonine-protein kinase NIM1 (Homo sapiens), sequence (Q8IY84 whole entry): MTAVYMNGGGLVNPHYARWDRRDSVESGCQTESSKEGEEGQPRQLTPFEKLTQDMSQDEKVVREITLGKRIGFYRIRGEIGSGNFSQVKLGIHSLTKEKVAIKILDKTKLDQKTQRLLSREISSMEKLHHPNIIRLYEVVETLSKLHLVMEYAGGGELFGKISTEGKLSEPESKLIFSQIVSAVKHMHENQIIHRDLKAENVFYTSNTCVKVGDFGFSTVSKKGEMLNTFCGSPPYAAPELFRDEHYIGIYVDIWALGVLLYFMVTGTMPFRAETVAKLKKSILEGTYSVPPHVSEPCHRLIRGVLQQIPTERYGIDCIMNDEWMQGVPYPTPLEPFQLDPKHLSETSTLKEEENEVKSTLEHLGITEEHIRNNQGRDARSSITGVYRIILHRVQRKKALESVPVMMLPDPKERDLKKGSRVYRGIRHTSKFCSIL

Take `O=C1c2ccc(Nc3ccc(F)cc3F)cc2CCc2ccc(OC[C@H](O)CO)cc21` [Skepinone-L]: the Activity in [1] was 100%; in test [2], 110%; in test [3] it was 83%; in test [4], 121%; in test [5], 100%; in [6], 77%. Further, the Activity in test [7] came out at 90%; in test [8] it was 101%; in test [9], 105%; in test [10] it was 125%; in test [11], 97%; in [12], 94%. The Activity was 83% in [13] and 105% in test [14].
